Values belong to the molecule of their own block, whether it stands above or below them. Ends that are not written are not given here.
Assays:
[1] = test system: FGFR; cerebellar granule neurons (CGNs); test: Neurite outgrowth in CGNs with FGFR-inhibitor SU5402; assay type: cell-based, Wistar rat; conditions: p < 0.01
Description: (§1) Cerebellar granule neurons (CGNs) were prepared from 7-day-old Wistar rat pups (Charles River Laboratories, Sulzfeld, Germany) as previously described ([Schousboe et al., 1989]). Briefly, pups were decapitated, and the cerebellum was removed and cleared from blood vessels and meninges in ice-cold modified Krebs-Ringer buffer. The cerebellum was dissociated by chopping and trypsinization. Cells were washed in Krebs-Ringer buffer containing DNAse I (Sigma, St. Louis, MO, United States) and soybean trypsin inhibitor (Sigma) to stop trypsinization, and the remaining tissue pieces were pelleted by centrifugation. Cells were then washed in Krebs-Ringer buffer containing Ca^2+ and Mg^2+ and re-suspended in appropriate Neurobasal^TM medium (Invitrogen, Taastrup, Denmark) with supplements depending on the experiment.
Cerebellar granule neurons CGNs were re-suspended in Neurobasal^TM medium supplemented with 2% (v/v) B27, 0.5% (v/v) glutamax, 100 U/ml penicillin, 100 μg/ml streptomycin, 0.4% (w/v) BSA, and 20 mM HEPES and were seeded in 8-well LabTek Permanox chamber slides (Nunc) at a density of 1 × 10^4 cells/cm^2. Various concentrations of ARTN, artefin, scrambled artefin, or reversed artefin were added to neurons immediately after seeding. For the RET inhibition assay, the inhibitory goat anti-mouse RET antibody (4.1 μg/ml; R&D systems, Abingdon, United Kingdom) or control goat IgG (4.1 μg/ml; Santa Cruz Biotechnology, Dallas, TX, United States) were added to neurons 1 h before stimulation with ARTN (0.042 nM) […]. For the competition assay between growth factor and mimetic peptide, a combination of ARTN (2.1 nM) and artefin (4.2 μM) was added to the cells immediately after seeding. […]
To estimate neurite outgrowth, neurons were fixated 24 h after stimulation and stained with rabbit anti-growth-associated-protein-43 (GAP-43) antibody (Chemicon International, Inc., Temecula, CA, United States) or anti-GFP antibody (for transfection experiment) overnight at 4°C followed by incubation with secondary Alexa-conjugated goat anti-rabbit antibodies (Invitrogen, Taastrup, Denmark). In case of experiments with plasmid transfection, the transfection efficiency was ca. 20% of total cells and the neurite outgrowth was evaluated only in GFP-positive, i.e., transfected, cells. […]
Computer-assisted fluorescent microscopy was performed using a Nikon Diaphot 300 inverted microscope (Nikon) equipped with a Nikon Plan 20× objective and coupled to a video camera (Grundig Electronics, Germany). For each condition in each experiment, including the experiment with transfections, images of approximately 200 cells were recorded in systematic series of fields of view, and neurite outgrowth was quantified using a stereological approach as previously described ([Rønn et al., 2000]). […]

[2] = test system: NCAM; cerebellar granule neurons (CGNs); test: Neurite outgrowth in CGNs with NCAM knock down (NCAM shRNA); assay type: cell-based, Wistar rat; conditions: 24 h, P2-d 8 μg/ml, ARTN 0.21 nM, artefin 1.4 μM
Description: as §1
(§2) To evaluate the involvement of NCAM and RET in neurite outgrowth induced by either ARTN or artefin, CGNs (3 × 10^6 per transfection) were transfected with 3 μg DNA using a Nucleofector^TM 2b device and a Rat Neuron Nucleofector Kit (Amaxa, Inc., Gaithersburg, MD, United States). A kinase-deleted dominant negative RET insert was obtained by direct PCR using a commercially available clone (IRAKp961P02132Q; RZPD, Berlin, Germany) encoding full-length mouse RET coding sequence 586–3807 nt. as template. The upper primer […] contained a NheI restriction site and Kozak sequence, and the lower primer […] encoded Streptag II and NotI restriction sites. The dominant negative RET insert and the pcDNA5/FRT expression vector containing the Flp-In system were cut with NheI and NotI restriction enzymes, purified, ligated using the Rapid DNA Ligation Kit (Roche, Basel, Switzerland), and transfected into One Shot TOP10 E. coli (Invitrogen, Taastrup, Denmark). E. coli colonies containing the dominant negative RET insert were identified by PCR, and one insert-positive colony was used for plasmid purification. The identity of the purified plasmid was verified by restriction cutting and sequencing of the insert. For NCAM knock down, we used a pENTR vector containing the shRNA expression cassette for NCAM knock down ([Hansen et al., 2007]). An empty vector was used as a control. To identify transfected neurons, all transfections were performed as co-transfections with 0.5 μg pEGFP-N1, an expression vector encoding the enhanced variant of green fluorescent protein (GFP; Clontech, Palo Alto, CA, United States). Transfected CGNs were seeded in Neurobasal^TM-A medium supplemented with 2% (v/v) B27, 5% (v/v) FCS, and 2 mM Glutamax at a density of 1 × 10^5 cells/cm^2.
(§3) To estimate neurite outgrowth, neurons were fixated 24 h after stimulation and stained with rabbit anti-growth-associated-protein-43 (GAP-43) antibody (Chemicon International, Inc., Temecula, CA, United States) or anti-GFP antibody (for transfection experiment) overnight at 4°C followed by incubation with secondary Alexa-conjugated goat anti-rabbit antibodies (Invitrogen, Taastrup, Denmark). In case of experiments with plasmid transfection, the transfection efficiency was ca. 20% of total cells and the neurite outgrowth was evaluated only in GFP-positive, i.e., transfected, cells. For representative pictures, cells were additionally co-stained with Hoechst 33258.
(§4) Computer-assisted fluorescent microscopy was performed using a Nikon Diaphot 300 inverted microscope (Nikon) equipped with a Nikon Plan 20× objective and coupled to a video camera (Grundig Electronics, Germany). For each condition in each experiment, including the experiment with transfections, images of approximately 200 cells were recorded in systematic series of fields of view, and neurite outgrowth was quantified using a stereological approach as previously described ([Rønn et al., 2000]).
(§5) FIGURE 7 Neuritogenic effect of ARTN and artefin in (A) dominant negative RET or (B) knock down NCAM-expressing CGNs. […]

[3] = test system: RET; cerebellar granule neurons (CGNs); test: Neurite outgrowth in CGNs transfected with dominant negative RET (dnRET); assay type: cell-based, Wistar rat; conditions: 24 h, P2-d 8 μg/ml, ARTN 0.21 nM, artefin 1.4 μM
Description: as §1, §2, §3, §4, §5

[4] = test system: cerebellar granule neurons (CGNs); test: Survival assay of CGNs induced to undergo apoptosis by potassium withdrawal; assay type: cell-based, Wistar rat; conditions: 50 ng/ml, 48 h, 5 mM KCl; p < 0.0001; positive control
Description: as §1
Cerebellar granule neurons were re-suspended in Neurobasal^TM-A medium supplemented with 2% (v/v) B27 (Invitrogen, Taastrup, Denmark), 0.5% (v/v) glutamax, 100 U/ml penicillin, 100 μg/ml streptomycin, and 40 mM KCl, and seeded at a density of 1 × 10^5 cells/well in 8-well LabTek Permanox chamber slides (Nunc, Roskilde, Denmark) coated with poly-L-lysine (10 μg/ml). To avoid proliferation of non-neuronal cells, cytosine-β-D-arabinofuranoside (Sigma) was added to cells 24 h after plating. CGNs were allowed to differentiate for 7 days in vitro (DIV) in the presence of 40 mM KCl before being induced to undergo apoptosis by changing the medium to one containing only 5 mM KCl (apoptotic medium) ([D’Mello et al., 1993]). At 7 DIV, cells were washed and stimulated with serially diluted ARTN or artefin diluted in the apoptotic medium. Three different controls were included; (1) cells grown in medium containing 40 mM KCl served as a positive control; (2) cells grown in medium containing 5 mM KCl served as a negative control; (3) cells grown in medium containing 5 mM KCl supplemented with 50 ng/ml insulin growth factor-1 (IGF-1) (Life Technology), a known anti-apoptotic factor for CGNs in this setup ([Galli et al., 1995]). After 48 h following the induction of apoptosis, cells were fixated in 4% formaldehyde for 30 min, and nuclear morphology was visualized with Hoechst 33258 staining (Invitrogen, Taastrup, Denmark) (Figure 2A). Images of cells were obtained using a Nikon Diaphot 200 fluorescent microscope equipped with a Nikon Plan 40× objective (Nikon, Tokyo, Japan) and coupled to a black-white video camera. Images of at least 1000 cells/well in different fields of view were analyzed, and the percentage of viable neurons was estimated as the ratio of live cells (non-pyknotic cells with dispersed chromatin) to the total number of neurons.
FIGURE 2 Effect of ARTN and artefin on survival of cerebellar granular neurons (CGNs) induced to undergo apoptosis. CGNs were differentiated for 7 days in the presence of 40 mM KCl before apoptosis was induced by potassium withdrawal. (A) Nuclear morphology of CGNs after Hoechst 33258 staining. […] Scale bar: 100 μm. Cells were grown for 48 h in media, containing 40 mM KCl, apoptotic medium (5 mM KCl) or apoptotic medium supplemented with 50 ng/ml IGF-1 (positive control) (B), serially diluted ARTN (C), or artefin (D). Each experiment was performed in the presence of the three controls (40 mM KCl, 5 mM KCl, and 5 mM KCl plus IGF-1), and the survival effect of the growth factor and the peptide was compared to its own apoptotic control (5 mM KCl). Results from the five experiments are expressed as percentage of 40 mM KCl control set at 100% and presented as mean ± SEM. The anti-apoptotic effect of ARTN and artefin was tested using Student’s paired t-test, where ^∗p < 0.05; ^∗∗p < 0.01; ^∗∗∗p < 0.001; ^∗∗∗∗p < 0.0001.

[5] = test system: cerebellar granule neurons (CGNs); test: Neurite outgrowth assay in CGNs; assay type: cell-based, Wistar rat; conditions: 24 h; ARTN 0.013–2.1 nM; artefin 0.16–37.9 μM; one-way ANOVA
Description: as §1
Cerebellar granule neurons CGNs were re-suspended in Neurobasal^TM medium supplemented with 2% (v/v) B27, 0.5% (v/v) glutamax, 100 U/ml penicillin, 100 μg/ml streptomycin, 0.4% (w/v) BSA, and 20 mM HEPES and were seeded in 8-well LabTek Permanox chamber slides (Nunc) at a density of 1 × 10^4 cells/cm^2. Various concentrations of ARTN, artefin, scrambled artefin, or reversed artefin were added to neurons immediately after seeding. For the RET inhibition assay, the inhibitory goat anti-mouse RET antibody (4.1 μg/ml; R&D systems, Abingdon, United Kingdom) or control goat IgG (4.1 μg/ml; Santa Cruz Biotechnology, Dallas, TX, United States) were added to neurons 1 h before stimulation with ARTN (0.042 nM) […]. For the competition assay between growth factor and mimetic peptide, a combination of ARTN (2.1 nM) and artefin (4.2 μM) was added to the cells immediately after seeding. To inhibit Fibroblast growth factor receptor (FGFR) pharmacologically, inhibitor of FGFR, SU5402 (Sigma), was added to the growth medium in serial dilutions of 20, 40, and 80 μM immediately after plating of CGNs, followed by addition of either P2-d (8 μg/ml), ARTN (0.21 nM), or artefin (1.4 μM) 1 h after the plating.
as §3, §4
FIGURE 3 Neurite outgrowth induced by ARTN (A), artefin-dendrimer (B), and artefin-monomer (C) in CGNs. Cells were stimulated with ARTN (0.013, 0.042, 0.13, 0.42, and 2.1 nM) or artefin (0.16, 0.47, 1.4, 4.2, 12.6, and 37.9 μM) for 24 h. For the unstimulated control, the absolute length of neurites was 11.47 ± 1.5 μm. Results from four independent experiments are expressed as percentage of untreated control set to 100% and presented as mean ± SEM. The mean neurite outgrowth lengths were compared using one-way ANOVA for repeated measurements. The effect of individual concentrations of ARTN and artefin was compared to control using one-way ANOVA with Dunnett’s post-hoc test, ^∗p < 0.05; ^∗∗p < 0.01. […]

[6] = biological target: T1, recombinant human GFRα3/Fc (human, UniProt O60609 32-374); test: SPR; Biacore 2000, 25°C, HBS-EP (10 mM HEPES pH 7.4, 150 mM NaCl, 3 mM EDTA, 0.005% P20); ARTN (~2300 RU) or artefin (~1600 RU) amine-coupled on a CM4 chip; serially diluted GFRα3/Fc or NCAM Ig1–3 injected at 20 μl/min; 1:1 interaction model or steady-state affinity analysis; conditions: both partners purified
T1 construct: GDNF family receptor alpha-3 (GFRα3), human; Commercial Fc chimera; also called GFL receptor α3; source: bought: R&D Systems
T1 sequence (looked up): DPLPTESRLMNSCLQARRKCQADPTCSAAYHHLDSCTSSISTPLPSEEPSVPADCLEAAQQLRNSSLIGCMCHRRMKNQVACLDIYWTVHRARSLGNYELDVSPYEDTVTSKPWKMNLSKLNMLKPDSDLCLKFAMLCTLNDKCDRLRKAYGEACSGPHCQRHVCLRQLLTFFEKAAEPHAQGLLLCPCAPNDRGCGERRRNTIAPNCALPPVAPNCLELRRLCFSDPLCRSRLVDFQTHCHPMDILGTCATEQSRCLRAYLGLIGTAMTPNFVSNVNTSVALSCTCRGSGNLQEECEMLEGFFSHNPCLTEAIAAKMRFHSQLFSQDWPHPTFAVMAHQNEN

[7] = biological target: T2, recombinant rat NCAM Ig1–3 (rat, UniProt P13596 20-308); test: as above; conditions: both partners purified
T2 construct: neural cell adhesion molecule (NCAM), rat, Ig1–3 domains; also called NCAM Ig1–3 domain; source: recombinant, produced as described previously (Soroka et al., 2003)
T2 sequence (P13596 20-308): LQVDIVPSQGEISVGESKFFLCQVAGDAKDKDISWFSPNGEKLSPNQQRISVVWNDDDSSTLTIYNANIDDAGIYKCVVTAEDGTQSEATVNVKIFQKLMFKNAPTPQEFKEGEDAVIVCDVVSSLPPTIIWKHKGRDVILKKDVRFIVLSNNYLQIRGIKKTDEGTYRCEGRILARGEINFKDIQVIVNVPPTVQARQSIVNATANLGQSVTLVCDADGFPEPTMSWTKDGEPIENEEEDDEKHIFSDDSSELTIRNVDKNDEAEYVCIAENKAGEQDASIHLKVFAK

Molecule: GRILARGEINFK [P2-d, reference compound]
neurite outgrowth with 80 μM FGFR inhibitor ([1]; P2-d 8 μg/ml with 80 μM inhibitor): significantly attenuated
neurite outgrowth in the absence of SU5402 ([1]; P2-d 8 μg/ml): promoted neurite outgrowth in the absence of SU5402 (p < 0.01)
neurite outgrowth in NCAM knock down neurons ([2]; NCAM shRNA): eliminated in neurons transfected with NCAM shRNA (p < 0.01
neurite outgrowth in mock-transfected neurons ([2]; empty vector, versus control): increased neurite outgrowth in mock-transfected neurons (p < 0.05)
neurite outgrowth in dnRET-transfected neurons ([3]; dnRET): significantly increased the level of neurite outgrowth in mock-transfected neurons as well as in neurons transfected with the vector encoding dnRET (p < 0.05
neurite outgrowth in mock-transfected neurons ([3]; empty vector, versus control): significantly increased the level of neurite outgrowth in mock-transfected neurons

Molecule: IGF-1: insulin growth factor-1 (Life Technology), a known anti-apoptotic factor for CGNs [reference compound]
neuronal survival (rescue from apoptosis by potassium withdrawal) [4]: significantly increased the number of CGNs rescued from the apoptosis

Molecule: RSPHDLSLASLLGAG [artefin in monomer form]
overall neuritogenic effect [5]: did not demonstrate any significant neurite outgrowth

Kd [6]: 0.0029 µM
Kd [7]: 2.8 µM
B1: artefin, ARTN-derived peptide synthesized as a tetramer (dendrimer) on a lysine backbone (peptide)
peptide: RSPHDLSLASLLGAG
modifications: also: tetramer: four monomers coupled to a lysine backbone
notes: amino acids 166-180 of human ARTN (UniProt D3DPX9), heel region; also called artefin-dendrimer; artefin-d; source: synthetic peptide (Schafer-N, Copenhagen; solid-phase Fmoc chemistry)
